The numbers were not newly measured in US20180015164A1, “A Composition Containing Protective Agent for Singlet Oxygen and A Preparation Method therefor” (Nanjing University, priority 2016, published 2018), which cites them from elsewhere.

The conditions of this data set: in the named solution (solvent / protective agent).
In the case of `CCO` [ethyl alcohol], the “lifetime of singlet oxygen” value is on record as 12 μs.
Consider `[2H]O[2H]` [deuteroxide], for which the “lifetime of singlet oxygen” value was 20 μs.
Turning to `CCCCCC` [hexane], the “lifetime of singlet oxygen” value is 17 μs.
Consider `CO` [methyl alcohol], for which the “lifetime of singlet oxygen” value is on record as 7 μs.
Take `O` [water]: the “lifetime of singlet oxygen” value is 2 μs.
In the case of `S=C=S` [carbon disulfide], the “lifetime of singlet oxygen” value is recorded as 200±60 μs.
As to `FC(F)(F)C(F)(F)C(F)(F)C(F)(F)C(F)(F)C(F)(F)F` [perfluorohexane], the “lifetime of singlet oxygen” value is recorded as 600±200 μs.
In the case of `FC(Cl)(Cl)Cl` [Freon 11], the “lifetime of singlet oxygen” value is 1000±200 μs.
For `ClC(Cl)Cl` [chloroform], the “lifetime of singlet oxygen” value is listed as 60±15 μs.
